How the values were obtained:
[1] = test system: mouse embryonic fibroblasts (MEFs); experiment: MTT assay; format: cell-based; conditions: data not shown
[2] = test system: memory B cells; experiment: High-throughput multiplex qPCR of B-cell-related genes; format: cell-based, human; conditions: 10 μM
Experimental: FIGS. 4A-AA are a combination of heatmap plot and graphs showing expression of B-cell-related genes at day 4 and day 7 of the human B cell differentiation in vitro model in the presence of 0 μM and 10 μM of the compound 005 (n=6). Experimental conditions are as described in the FIG. 3. […] FIG. 4B-AA show expression of the selected genes at day 4 related to proliferation (FIG. 4B-D), plasma-cell differentiation (FIG. 4E-I), immunoglobulin isotype switching (FIG. 4J-M), B-cell identity (FIG. 4N-S), and B-cell activation (FIG. 4T-AA).

[3] = test system: BOB1/OCT1-mediated transcription; experiment: Luciferase reporter assay (transient transfection, 6xPORE-luc); format: cell-based, human
Experimental: FIGS. 1A-C are a combination of graphs showing that compound 005 inhibits BOB1/OCT1-mediated transcription in vitro. HEC293Ea1 cells, known to express endogenous OCT1, were co-transfected with […] reporter, pEV-OBF1 (BOB1) effector, and pCMV-β-gal calibrator plasmids. Luciferase and β-galactosidase activities were measured 48 hours after transfection. The 100% luciferase activity was set as activity in presence of vehicle (10 μM DMSO). […] All experiments are performed at least in triplicates. Bars indicate the mean±SEM. * P<0.05, ** P<0.01, *** P<0.001, **** P<0.0001.
The HEK293E1a cells were seeded at density 1.2×10^4 per well on 48-well plate in DMEM medium containing 10% fetal calf serum. After 24 hours cells were transfected with plasmid mix (300 ng/well) containing specified amounts of the p6×PORE-luc reporter, pEV-OBF1 and pCG-Oct1 effector, pBluescript II KS+ carrier, and pCMV-βgal (for standardization) as previously described. The transfections were carried out in three biological replicates, using Polyethylenimine (PEI 25K, Polysciences Inc.) at the ratio 2:1 to DNA. After 48 hours, cells were washed with PBS, lysed, and measured for luciferase activity, using the Bright-Glo luciferase assay system (Promega), and for β-galactosidase activity in a standard assay.
BOB1 has been described as a coactivator acting in cooperation with the POU-domain proteins OCT1 and OCT2 bound to distinct DNA-motifs either in monomeric or dimeric configurations. […] As an initial functional assay, we examined the ability of the compounds according to the present invention to affect BOB1-OCT1-PORE-mediated transcriptional activation in transient transfection luciferase assay. To this end, we made use of previously generated 6×PORE-luc and reporter plasmid, in which hexamers of the PORE were cloned upstream of the thymidine kinase (tk) minimal promoter and luciferase gene. […] Furthermore, the addition of a plasmid expressing exogenous OCT1 exerted an inhibitory effect on both basal and BOB1-mediated transcription (data not shown). This observation is likely due to the fact that HEK293 cells, like all other mammalian cell types, express OCT1, and further addition of exogenous OCT1 in these cells shifts the BOB1/OCT1 equilibrium out of optimal range, resulting in squelching effect, and in our experimental setup, in about 3-fold stimulation, as compared to that by endogenous OCT1 alone (FIG. 1A). […] Compound 005 was selected for further detailed investigation.

Cc1ccc(NC(=O)C2CN(c3nc(NCCCc4ccc(F)cc4)nc(NCCC(=O)O)n3)c3ccccc3O2)cc1Cl (centres unmarked) [compound 005, 3-((4-(2-((3-chloro-4-methylphenyl)carbamoyl)-2,3-dihydro-4H-benzo[b][1,4]oxazin-4-yl)-6-((3-(4-fluorophenyl)propyl)amino)-1,3,5-triazin-2-yl)amino)propanoic acid]
concentration showing toxicity [1]: ≥ 80 µM
expression of genes related to the B cell identity and activation [2]: upregulated
expression of plasma cell related genes [2]: suppressed
BOB1/OCT1-driven transcription (relative luciferase activity) ([3]; 10 μM in the culture medium): significantly attenuated
suppression of transcriptional activation ([3]; concentration range from 0.5 to 40 μM): dose-dependent manner

— patent US20250177412A1, “SMALL-MOLECULE INHIBITORS TARGETING THE BOB1/OCT1 INTERFACE” (NANTES UNIVERSITE, priority 2022, published 2025)
